Broadly, the melting point is the temperature, or range, at which the solid turns liquid.

Among the data in a melting point compilation (Tetko et al.; mined from patent text by program, amines drawn as free bases though some values may be those of a salt) are melting point values, retold here.

`CC(C)(C)OC(=O)N1CCC=C(C(=O)O)C1` had a melting point of 198 to 202 °C.
The same measure for `N#Cc1ccc(N2CC=C(N3CCCC3)CC2)cc1`: 126 to 129 °C; for `Cc1c(N2C[C@@H](N)[C@@H](C)C2)c(F)c(N)c2c(=O)c(C(=O)O)cn(C3CC3)c12` (relative stereo): 214 to 215 °C; for `CC(=O)c1cc(-c2ccncc2)sc1-c1ccncc1`: 117 to 119 °C.
Take `COCCOCc1c(CN(C)CC(O)c2cccnc2)sc2c(=O)c(C(=O)NCc3ccc(Cl)cc3)cn(C)c12` (centres undefined): the melting point lay within 129 to 132 °C.
For the molecule `Cc1ccc2c(c1)[nH]c(=O)n2CCCOS(C)(=O)=O`, the melting point is 125 °C.
In the case of `CNC(=O)c1cnn(-c2ccccn2)c1C#N` it was 200 to 202 °C.
For the molecule `CC1(C)N(Cc2ccc(C(=O)Cl)cc2)C(=O)C(=O)N1Cc1ccc(C(=O)Cl)cc1`, the melting point was in the range of 232 to 235 °C.
In the case of `CN(C)C=Cc1ncc([N+](=O)[O-])n1CCN1CCOCC1` it was 105 to 106 °C; in that of `CN(C)c1c(F)c(F)c(F)c(F)c1C(=O)O`, 90 to 100 °C.
As to `CC(C)(Cc1ccc(Cl)cc1Cl)C(=O)Cn1cncn1`, the melting point turned out to be 85 °C.
Molecule `COc1ccc(C)c(NC(=O)CCl)c1` had a melting point of 89 to 91 °C.
`CC(C)(CO)c1ccc(C=O)c(O)c1` gave a melting point of 80.4 to 81.9 °C.
The same measure for `COc1cc(NC(C)=O)c(Cl)cc1C(=O)NN1CCN(Cc2ccccc2)CC1`: 185 °C; for `COc1cc2c(cc1-c1ccccc1F)NC(=O)CC(c1cccc(C#N)c1)=N2`: 245 to 247 °C; for `CCNC(=O)c1cc(-c2ccc(OC)cc2)nn(CC2CCCC2)c1=O`: 129 °C.
Regarding `O=S(=O)(NC1CCOCC1)c1ccc(Cl)cc1`, the melting point was in the range of 127 to 129 °C.
`O=S(=O)(C=Cc1ccccc1)On1nnc2ccccc21` showed a melting point of 102 to 103 °C.
Molecule `Cn1ncc(S(N)(=O)=O)c1C1=NOCCO1` registered a melting point of 126 to 130 °C.
The same measure for `CCCNC(=O)N(Cc1ccc(Cl)cc1)C1CCCC1`: 103 to 105 °C; for `Cc1c(-c2ccccc2)oc2c(OCCCCBr)cccc2c1=O`: 91 to 92 °C.
The same measure for `CCOC(=O)N1CC[C@@H](N)[C@H](O)C1` (relative stereo): 76.9 °C; for `CCc1nn(C2CCCC2)c2cc(-c3ccccc3)ccc12`: 72 to 74 °C.
The same measure for `CO[C@]1(c2cnc(SC)s2)CCO[C@@H]1C` (racemic): 51 to 52 °C.
`CCC(CC)Nc1c(NCc2ccc(Cl)cc2Cl)c(=O)c1=O`: the melting point was in the range of 210 to 211 °C.
For the molecule `C/C(=C\C=C\c1ccccc1)C(=O)NCCCCCC(=O)NO`, the melting point lay in the range of 158 to 160 °C.
The same measure for `CN1Cc2ccc(Cl)cc2P1(=O)c1ccccc1` (centres undefined): 159 to 162 °C.
The same measure for `Nc1nc(=Nc2ccccc2)n2c(n1)sc1ccccc12`: above 250 °C; for `Nc1ccc(C(=O)OC2CCN(Cc3ccccc3)CC2)cc1`: 119 to 120 °C; for `Cc1c(-c2cncnc2)ssc1=S`: 184 °C.
The same measure for `Cc1ccc(N2C(=O)C(O)=C(C(=O)c3cccc(Cl)c3)C2c2ccc(C(C)C)cc2)nn1` (centres undefined): 271 °C; for `O=C1CCn2c(CCc3ccccc3)nc3cccc1c32`: 112 to 113 °C.
Take `CC(=O)C=Cc1cn(CC(=O)N(C)CCc2ccccc2)c2ccc(OCc3ccccc3)cc12`: the melting point was in the range of 150 to 152 °C.
The same measure for `CC(C)(C)CCNC(=O)CN1C(=O)C2(COc3cc4c(cc32)CCO4)c2ccccc21` (centres undefined): 161 to 163 °C; for `O=C1Cc2cc(Sc3ccccc3)ncc2N1`: 186 to 189 °C.
The same measure for `CCOc1cc2cc(CO)cc(-c3ccnc(NN)c3)c2cc1OCC`: 147 to 149 °C.
For the molecule `CCCC(=O)C1=C(O)CC(C2(C)CC(C(C)CC)=NO2)CC1=O` (centres undefined), the melting point lay in the range of 53 to 55 °C.
With `CC(=O)N1C(C)(C)CN(CCN2CC(C)(C)N(C(C)=O)C(C)(C)C2=O)C(=O)C1(C)C`, the melting point was 180 to 183 °C.
In the case of `Cc1ccc(C(C)(CCCCC(=O)CCCCC(C)(C(=O)O)c2ccc(C)cc2)C(=O)O)cc1` (centres undefined) it was 48 to 50 °C; in that of `C=C1N(C)C(=O)OC12CCN(CCCN1c3ccccc3Sc3ccc(C(F)(F)F)cc31)CC2`, 116 to 118 °C; in that of `Cc1nn(-c2cc3[nH]c(=O)ccc3cc2F)c(=O)n1C(F)F`, 215 to 217 °C.
The same measure for `CS(=O)(=O)c1ccc2c(c1)c1c(n2Cc2ccc(Cl)cc2)C(CC(=O)O)CCC1` (centres undefined): 101 to 102 °C; for `CCC1=NC(NC(=O)Nc2cccc(C)c2)C(=O)N(CC(=O)N2CC3CCC(CC3)C2)c2c(C)cccc21` (centres undefined): 130 to 133 °C.
The molecule `O=C(Nc1cc(Br)cc(C(F)(F)F)c1)Oc1ccc([N+](=O)[O-])cc1` came in with a melting point of 140 to 142 °C.
The molecule `CC(C)(C)OC(=O)NC(Cc1ccccc1)C(O)C(N)Cc1ccccc1` (centres undefined) had a melting point of 134 to 135 °C.
The same measure for `O=[N+]([O-])c1cc(-c2ccoc2)ccc1Nc1cccc(-n2ccnc2)n1`: 173 to 174 °C; for `CC(C)CNCc1cc2cc(NC(=O)c3ccc(OC[C@@H]4CCCO4)cc3)ccc2n1C`: 132 to 133 °C.
As to `FC(F)(F)c1cc(Cl)c(-n2cc(C3CC3(Br)Br)c(C=C(Br)Br)n2)c(Cl)c1` (centres undefined), the melting point fell in the range of 106 to 107 °C.
Consider `COc1cc(Nc2nccc(NC(=O)OC(C)(C)C)n2)cc(OC)c1OC`, for which the melting point amounted to 124 °C.
The molecule `CCOc1nc(-c2cccc(Cl)c2)c2cc(C(O)(c3ccc(I)cc3)c3cncn3C)ccc2n1` (centres undefined) gave a melting point of 135 °C.
The same measure for `CC(C)OC(=O)c1cc(-n2c(=O)[nH]c3c(c2=O)CCC3)c(Cl)cc1Br`: 208 to 210 °C.
The same measure for `CC(=O)CC(=O)OC(C)N=C(O)c1cc(C(=N)O)c(C(=O)O)cc1C(=O)O` (centres undefined): 161 to 163 °C.
The molecule `O=C1NCCC[C@@H]1NS(=O)(=O)c1c(F)cccc1F` gave a melting point of 152 to 153 °C.
In turn, `CCCCCCCCc1ccc(-c2cnc(-c3ccc(O)cc3F)nc2)cc1` had a melting point of 167 °C.
In the case of `COc1cc2c(cc1Nc1ncc(Cl)c(Nc3ccccc3OC)n1)CCN(CC(=O)N(C)C)CC2` it was 65 to 85 °C; in that of `N#Cc1cnc2sc(-c3ccccc3C=O)cc2c1Nc1ccc2[nH]ccc2c1`, 222 to 224 °C; in that of `COc1ccc(-c2[nH]cnc2-c2cc(OC)c(N)c(OC)c2)cc1N`, 140 to 142 °C.
In the case of `CCCCCCCNC(=O)Nc1ccccc1C=Cc1cc(C(C)(C)C)c(O)c(C(C)(C)C)c1` it was 162 to 164 °C; in that of `Nc1ncc(-c2ccnc(N3CCOCC3)n2)c2ccccc12`, 255 to 256 °C; in that of `CCCCSCC(=O)N(Cc1cccnc1)C(C)(C)C`, 55 to 56 °C.
Take `N#Cc1ccccc1S(=O)(=O)N1CCCC1c1ccc(F)cc1` (racemic): the melting point stood at 101 °C.
Molecule `O=c1[nH]nc(-c2ccc(N3CCCCCC3)c([N+](=O)[O-])c2)c2ccccc12` showed a melting point of 187 to 189 °C.
Turning to `CCOC(=O)c1ccc(-c2cc(O)c(SCCc3ccccc3)c(=O)o2)cc1`, the melting point fell in the range of 156 to 158 °C.
`COc1nncc(-c2ccccc2)n1` yielded a melting point of 73 to 74 °C.
